Reference: patent US20230085307A1, “PYRIDAZINONE COMPOUND AND HERBICIDE” (NISSAN CHEMICAL CORPORATION, priority 2019, published 2023)

Assays:
barnyard grass [1] = test: Test Example 3: herbicidal effect by foliage application, Wagner pot (Table 18, symbol H); type: in vivo, barnyard grass (Echinochloa crus-galli)
Outline: (§1)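 Plants were sown in alluvial soil held under 0.1–0.5 cm standing water and grown 14 days in a greenhouse at 25–30 °C. An emulsifiable formulation, water-diluted to the set dose, was then sprayed onto the foliage, and effects were scored three weeks later using previously defined criteria.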

Chinese sprangletop = test: Test Example 3: herbicidal effect by foliage application, Wagner pot (Table 18, symbol D); type: in vivo, chinese sprangletop (Leptochloa chinensis)
Outline: as §1

rice flat sedge = test: Test Example 3: herbicidal effect by foliage application, Wagner pot (Table 18, symbol E); type: in vivo, rice flat sedge (Cyperus iria)
Outline: as §1

southern crabgrass = test: Test Example 5: herbicidal effect by foliage application, plastic box (Table 20, symbol F); type: in vivo, southern crabgrass (Digitaria ciliaris)
Outline: (§2)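 Foliar spray test: emulsion formulation diluted in water to a set application rate, sprayed onto 14-day-old plants raised in diluvial soil at 25° C to 30° C under glass. Both herbicidal effect and crop effect rated visually three weeks later.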

green foxtail = test: Test Example 5: herbicidal effect by foliage application, plastic box (Table 20, symbol G); type: in vivo, green foxtail (Setaria viridis)
Outline: as §2

barnyard grass [2] = test: Test Example 5: herbicidal effect by foliage application, plastic box (Table 20, symbol H); type: in vivo, barnyard grass (Echinochloa crus-galli)
Outline: as §2

wild oat = test: Test Example 5: herbicidal effect by foliage application, plastic box (Table 20, symbol I); type: in vivo, wild oat (Avena fatua)
Outline: as §2

blackgrass = test: Test Example 5: herbicidal effect by foliage application, plastic box (Table 20, symbol J); type: in vivo, blackgrass (Alopecurus myosuroides)
Outline: as §2

Italian ryegrass = test: Test Example 5: herbicidal effect by foliage application, plastic box (Table 20, symbol K); type: in vivo, Italian ryegrass (Lolium multiflorum)
Outline: as §2

windgrass = test: Test Example 5: herbicidal effect by foliage application, plastic box (Table 20, symbol L); type: in vivo, windgrass (Apera spica-venti)
Outline: as §2

velvetleaf = test: Test Example 5: herbicidal effect by foliage application, plastic box (Table 20, symbol M); type: in vivo, velvetleaf (Abutilon theophrasti)
Outline: as §2

redroot pigweed = test: Test Example 5: herbicidal effect by foliage application, plastic box (Table 20, symbol N); type: in vivo, redroot pigweed (Amaranthus retroflexus)
Outline: as §2

lambsquarters = test: Test Example 5: herbicidal effect by foliage application, plastic box (Table 20, symbol O); type: in vivo, lambsquarters (Chenopodium album)
Outline: as §2

chickweed = test: Test Example 5: herbicidal effect by foliage application, plastic box (Table 20, symbol P); type: in vivo, common chickweed (Stellaria media)
Outline: as §2

persian speedwell = test: Test Example 5: herbicidal effect by foliage application, plastic box (Table 20, symbol R); type: in vivo, Persian speedwell (Veronica persica)
Outline: as §2

[3] = amount of applied herbicide 320 g/ha, foliage application after 14-day growth, evaluated three weeks after application
[4] = foliage application, 320 g/ha, three weeks after application
[5] = amount of applied herbicide 320 g/ha

Question: For `CCCC(=O)Oc1c(C)nn(C)c(=O)c1-c1c(-c2ccccc2SCC)sc2c(Cl)cccc12` [4-091], which “herbicidal effect on barnyard grass (H)” value (barnyard grass [1]; 320 g/ha) is on record?
Answer: 5 (Herbicidal rate of 90% or more (almost completely withered))

Question: What about the “herbicidal effect on Chinese sprangletop (D)” value (Chinese sprangletop; 320 g/ha) of the same compound?
Answer: 5 (Herbicidal rate of 90% or more (almost completely withered))

Question: What about the “herbicidal effect on rice flat sedge (E)” value (rice flat sedge; 320 g/ha) of the same compound?
Answer: 3 (Herbicidal rate of 40% or more and less than 70%)

Question: And the “Herbicidal effect by foliage application, F: southern crabgrass” value (southern crabgrass; [3])?
Answer: 4 (Herbicidal rate of 70% or more and less than 90%)

Question: What about the “Herbicidal effect by foliage application, G: green foxtail” value (green foxtail; [3]) of the same compound?
Answer: 3 (Herbicidal rate of 40% or more and less than 70%)

Question: What about the “Herbicidal effect by foliage application, H: barnyard grass” value (barnyard grass [2]; [3]) of the same compound?
Answer: 3 (Herbicidal rate of 40% or more and less than 70%)

Question: And the “Herbicidal effect by foliage application, I: wild oat” value (wild oat; [3])?
Answer: 0 (Herbicidal rate of 5% or less (almost no effect))

Question: What about the “Herbicidal effect by foliage application, J: blackgrass” value (blackgrass; [3]) of the same compound?
Answer: 0 (Herbicidal rate of 5% or less (almost no effect))

Question: What about the “Herbicidal effect by foliage application, K: Italian ryegrass” value (Italian ryegrass; [3]) of the same compound?
Answer: 0 (Herbicidal rate of 5% or less (almost no effect))

Question: What about the “Herbicidal effect by foliage application, L: windgrass” value (windgrass; [3]) of the same compound?
Answer: 0 (Herbicidal rate of 5% or less (almost no effect))

Question: And the “Herbicidal effect by foliage application, M: velvetleaf” value (velvetleaf; [3])?
Answer: 2 (Herbicidal rate of 20% or more and less than 40%)

Question: And the “Herbicidal effect by foliage application, N: redroot pigweed” value (redroot pigweed; [3])?
Answer: 3 (Herbicidal rate of 40% or more and less than 70%)

Question: What about the “Herbicidal effect by foliage application, O: lambsquarters” value (lambsquarters; [3]) of the same compound?
Answer: 1 (Herbicidal rate of 5% or more and less than 20%)

Question: What about the “Herbicidal effect by foliage application, P: chickweed” value (chickweed; [3]) of the same compound?
Answer: 0 (Herbicidal rate of 5% or less (almost no effect))

Question: And the “Herbicidal effect by foliage application, R: persian speedwell” value (persian speedwell; [3])?
Answer: 4 (Herbicidal rate of 70% or more and less than 90%)

Question: With `CCCC(=O)Oc1c(C)nn(C)c(=O)c1-c1c(-c2ccccc2SC)sc2ccccc12` [1-035] as the compound, how does the “herbicidal effect on H (barnyard grass), rating 0-5” value (barnyard grass [1]; 320 g/ha) read?
Answer: 3 (Herbicidal rate of 40% or more and less than 70%)

Question: What about the “herbicidal effect on D (Chinese sprangletop), rating 0-5” value (Chinese sprangletop; 320 g/ha) of the same compound?
Answer: 0 (Herbicidal rate of 5% or less (almost no effect))

Question: What about the “herbicidal effect on E (rice flat sedge), rating 0-5” value (rice flat sedge; 320 g/ha) of the same compound?
Answer: 4 (Herbicidal rate of 70% or more and less than 90%)

Question: And the “herbicidal effect grade, F: southern crabgrass” value (southern crabgrass; [4])?
Answer: 0 (Herbicidal rate of 5% or less (almost no effect))

Question: And the “herbicidal effect grade, G: green foxtail” value (green foxtail; [4])?
Answer: 0 (Herbicidal rate of 5% or less (almost no effect))

Question: And the “herbicidal effect grade, H: barnyard grass” value (barnyard grass [2]; [4])?
Answer: 0 (Herbicidal rate of 5% or less (almost no effect))

Question: And the “herbicidal effect grade, I: wild oat” value (wild oat; [4])?
Answer: 3 (Herbicidal rate of 40% or more and less than 70%)

Question: What about the “herbicidal effect grade, J: blackgrass” value (blackgrass; [4]) of the same compound?
Answer: 0 (Herbicidal rate of 5% or less (almost no effect))

Question: What about the “herbicidal effect grade, K: Italian ryegrass” value (Italian ryegrass; [4]) of the same compound?
Answer: 0 (Herbicidal rate of 5% or less (almost no effect))

Question: What about the “herbicidal effect grade, L: windgrass” value (windgrass; [4]) of the same compound?
Answer: 0 (Herbicidal rate of 5% or less (almost no effect))

Question: And the “herbicidal effect grade, M: velvetleaf” value (velvetleaf; [4])?
Answer: 0 (Herbicidal rate of 5% or less (almost no effect))

Question: And the “herbicidal effect grade, N: redroot pigweed” value (redroot pigweed; [4])?
Answer: 0 (Herbicidal rate of 5% or less (almost no effect))

Question: And the “herbicidal effect grade, O: lambsquarters” value (lambsquarters; [4])?
Answer: 0 (Herbicidal rate of 5% or less (almost no effect))

Question: What about the “herbicidal effect grade, P: chickweed” value (chickweed; [4]) of the same compound?
Answer: 1 (Herbicidal rate of 5% or more and less than 20%)

Question: What about the “herbicidal effect grade, R: persian speedwell” value (persian speedwell; [4]) of the same compound?
Answer: 0 (Herbicidal rate of 5% or less (almost no effect))

Question: How did the “herbicidal effect on H: barnyard grass” value (barnyard grass [1]; [5]) turn out when `Cc1nn(C)c(=O)c(-c2c(-c3ccc(Oc4ncc(C(F)(F)F)cc4Cl)cc3)sc3ccc(F)cc23)c1O` [2-467] was run?
Answer: 3 (Herbicidal rate of 40% or more and less than 70%)

Question: What about the “herbicidal effect on D: Chinese sprangletop” value (Chinese sprangletop; [5]) of the same compound?
Answer: 4 (Herbicidal rate of 70% or more and less than 90%)

Question: And the “herbicidal effect on E: rice flat sedge” value (rice flat sedge; [5])?
Answer: 4 (Herbicidal rate of 70% or more and less than 90%)

Question: What about the “F: southern crabgrass, herbicidal effect grade” value (southern crabgrass; [4]) of the same compound?
Answer: 0 (Herbicidal rate of 5% or less (almost no effect))

Question: What about the “G: green foxtail, herbicidal effect grade” value (green foxtail; [4]) of the same compound?
Answer: 2 (Herbicidal rate of 20% or more and less than 40%)

Question: And the “H: barnyard grass, herbicidal effect grade” value (barnyard grass [2]; [4])?
Answer: 1 (Herbicidal rate of 5% or more and less than 20%)

Question: What about the “I: wild oat, herbicidal effect grade” value (wild oat; [4]) of the same compound?
Answer: 0 (Herbicidal rate of 5% or less (almost no effect))

Question: What about the “J: blackgrass, herbicidal effect grade” value (blackgrass; [4]) of the same compound?
Answer: 0 (Herbicidal rate of 5% or less (almost no effect))

Question: What about the “K: Italian ryegrass, herbicidal effect grade” value (Italian ryegrass; [4]) of the same compound?
Answer: 0 (Herbicidal rate of 5% or less (almost no effect))

Question: What about the “L: windgrass, herbicidal effect grade” value (windgrass; [4]) of the same compound?
Answer: 5 (Herbicidal rate of 90% or more (almost completely withered))

Question: What about the “M: velvetleaf, herbicidal effect grade” value (velvetleaf; [4]) of the same compound?
Answer: 1 (Herbicidal rate of 5% or more and less than 20%)

Question: And the “N: redroot pigweed, herbicidal effect grade” value (redroot pigweed; [4])?
Answer: 3 (Herbicidal rate of 40% or more and less than 70%)

Question: What about the “O: lambsquarters, herbicidal effect grade” value (lambsquarters; [4]) of the same compound?
Answer: 4 (Herbicidal rate of 70% or more and less than 90%)

Question: And the “P: chickweed, herbicidal effect grade” value (chickweed; [4])?
Answer: 3 (Herbicidal rate of 40% or more and less than 70%)

Question: And the “R: persian speedwell, herbicidal effect grade” value (persian speedwell; [4])?
Answer: 4 (Herbicidal rate of 70% or more and less than 90%)
